Counter-ions that a name gives are not always drawn.
Tests used:
wild-type mouse T cells = format: cell-based; conditions: total T cells and CD4/CD8 subpopulations
Method: Chemotaxis assays were conducted similarly to those previously described Smith, J. S. et al. C-X-C Motif Chemokine Receptor 3 Splice Variants Differentially Activate Beta-Arrestins to Regulate Downstream Signaling Pathways. Mol Pharmacol 92, 136-150, doi:10.1124/mol.117.108522 (2017)). Briefly, mouse leukocytes, obtained by passing cells isolated from the spleen and subjected to erythrocyte lysis through a 70-μm filter, were suspended in RPMI 1640 medium containing 5% FBS. For the assay, 1×10^6 cells in 100 μl of medium were added to the top chamber of a 6.5 mm diameter, 5-μm pore polycarbonate Transwell insert (Costar). Subsequently, cells were treated with βarr small-molecule modulators or vehicle for 30 min, followed by increasing concentrations of CCL19 suspended in 600 μL of the medium in the bottom chamber for 2 hours at 37° C. T cells migrated to the bottom of chamber were recovered, resuspended, washed, stained with a Live/Dead marker (Aqua Dead, ThermoFisher) and antibodies to cell surface markers (CD3, CD4, CD8, and CD45), and fixed with paraformaldehyde. The number of migrated T cells was measured by flow cytometric analysis with a BD LSRII Flow cytometer. […] A 1:10 dilution of input cells was similarly analyzed. Specific T cell migration was calculated by dividing the number of migrated cells by the number of input cells.

βarr1 = biological target: T1, βarr1 (Rattus norvegicus, UniProt P29066); experiment: Binding affinity (Kd) by ITC / thermal shift; conditions: Cmpd-30 by ITC; other three by combination of ITC and thermal shift; read-out: Kd (dissociation constant), βarr1
T1 construct: made in house
T1 sequence (P29066 whole entry): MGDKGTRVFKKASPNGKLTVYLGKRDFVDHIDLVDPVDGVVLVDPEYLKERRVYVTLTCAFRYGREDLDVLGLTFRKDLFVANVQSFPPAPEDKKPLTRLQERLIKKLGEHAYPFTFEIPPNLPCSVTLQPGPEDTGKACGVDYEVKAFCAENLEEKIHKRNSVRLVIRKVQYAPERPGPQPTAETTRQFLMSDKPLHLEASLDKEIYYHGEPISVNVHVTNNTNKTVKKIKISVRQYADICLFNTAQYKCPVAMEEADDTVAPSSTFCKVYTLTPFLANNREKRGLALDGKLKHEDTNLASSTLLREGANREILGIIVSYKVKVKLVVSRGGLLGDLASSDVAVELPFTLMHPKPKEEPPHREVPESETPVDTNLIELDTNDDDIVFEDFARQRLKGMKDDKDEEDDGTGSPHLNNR
Method: A high-throughput differential scanning fluorimetry-based thermal shift screen was developed to identify potential βarr small-molecule modulators present in the collection of structurally diverse, drug-like small-molecule compound library described above. The screen was performed using the StepOnePlus™ Real-Time PCR System (Applied Biosystems, Foster City, Calif.). Melting temperature changes were monitored with the use of a reporter fluorescent probe, SYPRO Orange (Thermo Fisher Scientific). Proteins were buffered in a 20 mM HEPES pH 7.5, 100 mM NaCl solution. All reactions were set up in a 96-well plate at final volumes of 20 μl. […] The temperature was raised with a step of 0.5° C. per 30 second from 25° C. to 99° C. and fluorescence readings were taken at each interval. Melting curves were directly exported from the instrument and were analyzed using Applied Biosystems® Protein Thermal Shift™ Software. Melting temperature (Tm) was calculated by plotting the first derivative of the fluorescence emission as a function of temperature [−dF/dT]. […]
ITC measurements were made using the MicroCal iTC200 system (MicroCal, Malvern, Pa.). […] Data were analyzed using MicroCal Origin software program to obtain association constant (Ka=1/Kd), stoichiometry (N), and thermodynamic parameters such as enthalpy (ΔH) and entropy (ΔS) of binding.

βarr2 = βarr2 (Rattus norvegicus, UniProt P29067); experiment: Dynamic light scattering (DLS) of βarr2; set-up: final βarr2 (truncated βarr2 at 394) concentration of ˜1 mg/mL; made in house; conditions: control βarr2 7.1 nm; Cmpd-30 60 μM
Chain of βarr2 (P29067 1-394): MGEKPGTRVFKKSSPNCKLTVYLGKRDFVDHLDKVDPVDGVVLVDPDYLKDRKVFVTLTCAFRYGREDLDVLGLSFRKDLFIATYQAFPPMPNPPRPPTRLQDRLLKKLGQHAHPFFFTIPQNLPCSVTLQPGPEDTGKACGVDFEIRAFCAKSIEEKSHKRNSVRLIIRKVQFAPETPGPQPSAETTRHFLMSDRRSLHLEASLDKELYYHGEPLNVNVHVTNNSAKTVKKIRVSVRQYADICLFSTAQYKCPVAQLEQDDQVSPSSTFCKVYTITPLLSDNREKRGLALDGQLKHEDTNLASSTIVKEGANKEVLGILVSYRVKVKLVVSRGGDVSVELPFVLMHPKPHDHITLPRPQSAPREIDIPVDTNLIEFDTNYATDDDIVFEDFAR
Method: DLS was performed on a Zetasizer Nano ZS instrument (Malvern Instruments, UK) at an excitation He—Ne laser source of 633 nm and a detector at a scattering angle of 173°. The measurements were obtained at 25° C. and defined time intervals. A low volume (100 μl) disposable sample cuvette was used (BRAND, Wertheim, Germany). The protein solutions used for all particle size measurements were at a final βarr2 (truncated βarr2 at 394) concentration of ˜1 mg/mL (20 μM) in a buffer consisting of […] (pH 7.4) and 150 mM NaCl in presence of Cmpd-30 (60 μM), IP6 (300 uM) or vehicle (DMSO). Size distributions of scattering particles of different βarr2 sample were obtained after data analysis performed on intensity and volume size distribution curves and the molecular mass and Z-average size calculated using Malvern DTS software.

ERK2-βarr2 complex = ERK2-βarr2 complex (Rattus norvegicus, UniProt P29067); experiment: Pull-down of 3×Flag-ERK2 with βarr2; format: binding; conditions: series of concentrations of compound
Chain of ERK2-βarr2 complex (P29067 whole entry): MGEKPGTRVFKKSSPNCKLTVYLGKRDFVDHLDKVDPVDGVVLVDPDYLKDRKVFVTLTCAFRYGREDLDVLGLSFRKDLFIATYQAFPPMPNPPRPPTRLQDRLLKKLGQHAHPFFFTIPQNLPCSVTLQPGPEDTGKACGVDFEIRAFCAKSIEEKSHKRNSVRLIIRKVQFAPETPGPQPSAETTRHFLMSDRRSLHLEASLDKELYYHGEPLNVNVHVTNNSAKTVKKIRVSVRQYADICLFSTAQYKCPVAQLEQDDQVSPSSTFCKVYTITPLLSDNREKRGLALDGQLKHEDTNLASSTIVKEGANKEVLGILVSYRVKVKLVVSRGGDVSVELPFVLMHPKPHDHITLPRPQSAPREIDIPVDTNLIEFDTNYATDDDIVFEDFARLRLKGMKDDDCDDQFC
Chain of ERK2-βarr2 complex (P28482 whole entry partner): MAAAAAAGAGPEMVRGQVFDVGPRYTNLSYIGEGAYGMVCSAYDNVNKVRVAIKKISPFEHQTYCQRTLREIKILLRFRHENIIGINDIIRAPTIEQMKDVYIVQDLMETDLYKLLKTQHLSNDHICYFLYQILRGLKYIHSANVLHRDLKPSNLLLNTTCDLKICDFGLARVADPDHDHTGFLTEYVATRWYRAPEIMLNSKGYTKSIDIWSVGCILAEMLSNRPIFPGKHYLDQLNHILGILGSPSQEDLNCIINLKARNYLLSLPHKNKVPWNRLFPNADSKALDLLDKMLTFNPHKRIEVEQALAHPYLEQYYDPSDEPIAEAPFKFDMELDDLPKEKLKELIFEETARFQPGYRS
Method: Given this surprising result on the ability of Cmpd-30 to activate ERK βarr1/2-dependent but receptor independent manner, next it was determined whether βarr2 and ERK2 can physically interact in the presence of Cmpd-30 by a pull-down assay. Purified 3×Flag-ERK2 was incubated with βarr2 in the presence of a series of concentrations of Cmpd-30 or vehicle.

CN(C)c1n/c(=N/Cc2ccco2)ss1 [Cmpd-30, 5-(furan-2-ylmethylimino)-N,N-dimethyl-1,2,4-dithiazol-3-amine;hydrobromide]
CCL19-induced chemotaxis of T cells (wild-type mouse T cells): significantly impair
Kd (βarr1): 0.0093 µM
particle (hydrodynamic) diameter of βarr2 (βarr2): 8.2 nm
ERK2-βarr2 complex formation (ERK2-βarr2 complex): forms a complex in vitro with βarr2 in a Cmpd-30-dependent manner

C=C1C(=O)C23[C@H](O)C1CC[C@H]2[C@]12COC3(O)[C@@H](O)[C@@H]1C(C)(C)CC[C@@H]2O [Cmpd-5, (1R,2S,10S,11R,15S,18R)-9,10,15,18-tetrahydroxy-12,12-dimethyl-6-methylidene-17-oxapentacyclo[7.6.2.15,8.01,11.02,8]octadecan-7-one]
Kd (βarr1): 0.233 µM

Reference: patent US20220315574A1, “Beta-Arrestin-Modulating Compounds and Methods of Using Same” (Duke University, priority 2019, published 2022)
